From patent publication EP0173480A2, “The antiviral use of phyllanthostatins” (priority 1984, dated 1986)
Entries after “also recorded” stand apart in the source; their conditions may differ. Like-named read-outs stand apart in the source and are kept apart here.

Assays:
[1] = tested on: coxsackie B3 virus (Nancy Strain); experiment: Inhibition of virus replication, virus yield in Vero cells; type: cell-based
coxsackie A21 = type: cell-based; set-up: ED90 Col: unit not given beside the values; conditions: for coxsackie A21 virus yield: ML cells
[2] = tested on: VSV (vesicular stomatitis virus); type: cell-based; set-up: ED90 VSV: unit not given beside the values; conditions: Vero cells
HA-1 = experiment: Cell culture antiviral activity, agar-well zones of cytotoxicity / plaque inhibition; conditions: 50 pg of test compound (so in the source); for zone of cytotoxicity: first figure of the cell; for zone of antiviral activity (viral plaque inhibition): second figure of the cell
Coe = experiment: as above; conditions: second figure of the cell, 50 pg of test compound (so in the source)
HSV-1 = experiment: as above; conditions: second figure of the cell, 50 pg of test compound (so in the source)
[3] = tested on: herpes simplex virus type 2 (HSV-2, MS); experiment: Inhibition of virus replication, virus yield by plaque method; type: cell-based; conditions: for ED90 MS: HSV-2 in Vero cells, drug concentration reducing virus titers by 90%
HSV-2 = experiment: Cell culture antiviral activity, agar-well zones of cytotoxicity / plaque inhibition; conditions: second figure of the cell, 50 pg of test compound (so in the source)
E.R. = conditions: 50 pg of test compound (so in the source); for zone of cytotoxicity: first figure of the cell; for zone of antiviral activity (viral plaque inhibition): second figure of the cell
Vero cells = conditions: monkey
[4] = tested on: herpes simplex virus type 1 (HSV-1, McIntyre); experiment: Inhibition of virus replication, virus yield by plaque method; type: cell-based; set-up: ED90 McIntyre: unit not given here; conditions: for ED90 McIntyre: HSV-1 in Vero cells, drug concentration reducing virus titers by 90%, unit only in b38; for HSV-1 virus yield: Vero cells
PR-8 = conditions: 50 pg of test compound (so in the source); for zone of cytotoxicity: first figure of the cell; for zone of antiviral activity (viral plaque inhibition): second figure of the cell
[5] = tested on: Herpes Simplex virus type 2 (HSV-2, strain 35D); experiment: Genital HSV-2 infection of female mice, intravaginal treatment, survival; type: in vivo; conditions: for mice survived (of 14): study of Table 3; for %S (percent survivors) / MDD (mean day of death): N 14; for protection of mice from lethal genital HSV-2 infection, summary in words: intravaginally from one hour after inoculation, 3 times daily
Vacc. = conditions: 50 pg of test compound (so in the source); for zone of cytotoxicity: first figure of the cell; for zone of antiviral activity (viral plaque inhibition): second figure of the cell
[6] = tested on: Herpes Simplex virus type 2 (HSV-2, strain 35D); experiment: Genital HSV-2 infection of female mice, virus titers in vaginal secretions; type: in vivo; conditions: for Mean virus titer in swabs of mice which shed virus / Nv/Nt, swabs with virus/total swabs: 8.0 x 10^4 PFU;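 for Mean virus titer in swabs of mice which shed virus: titer expressed as log PFU per ml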
[7] = 8.0 x 10^3 PFU/0.1 ml, mg/ml cell empty (1 mg/ml in upper section)
[8] = 8.0 x 10^4 PFU/0.1 ml, 1 mg/ml intravaginally
[9] = higher drug concentrations (5 and 50 µg/ml) compared with 0.5
[10] = day 1 after HSV-2 inoc., 0.5 mg/ml
[11] = day 1 after HSV-2 inoc., 1 mg/ml
[12] = day 2 after HSV-2 inoc., 0.5 mg/ml
[13] = day 2 after HSV-2 inoc., 1 mg/ml
[14] = day 3 after HSV-2 inoc., 0.5 mg/ml
[15] = day 3 after HSV-2 inoc., 1 mg/ml
[16] = day 4 after HSV-2 inoc., 0.5 mg/ml
[17] = day 4 after HSV-2 inoc., 1 mg/ml
[18] = day 7 after HSV-2 inoc., 0.5 mg/ml
[19] = day 7 after HSV-2 inoc., 1 mg/ml
[20] = second study, 8.0 x 10^4 PFU in 0.1 ml, 0.5 mg/ml

COC(=O)C1CCC2C(C1)OC1(CC(OC(=O)/C=C/c3ccccc3)C(C)CO1)C21CO1 (stereo not shown) [Phyllanthocin]
coxsackie B3 virus yield ([1]; 5 µg per ml): inhibitory for coxsackie B3 replication | coxsackie A21 virus yield (coxsackie A21; 5 µg/ml (below 5 µg per ml)): non-inhibitory; also recorded: did not reduce the yields; also recorded: not affected; also recorded: not for VSV or Coxsackie A-21 | coxsackie A21 virus yield (coxsackie A21; 50 µg/ml): reduced yields of all viruses; also recorded: reduction in titers of all viruses | ED90 Col (coxsackie A21; […], unit not given, NS - not significant): 61.7506 | VSV virus yield ([2]; 5 µg/ml (below 5 µg per ml)): non-inhibitory; also recorded: not affected; also recorded: not for VSV or Coxsackie A-21 | VSV virus yield ([2]; 50 µg/ml): reduced yields of all viruses; also recorded: reduction in titers of all viruses | ED90 VSV ([2]; reduces virus yield by 90%, unit not given, NS - not significant): 8.668 | zone of cytotoxicity (HA-1): 0/0 | zone of antiviral activity (viral plaque inhibition) (HA-1): 0/0 | zone of antiviral activity (viral plaque inhibition) (Coe): 0/0 | zone of antiviral activity (viral plaque inhibition) (HSV-1): 3 | ED90 MS [3]: 7.99 µg per ml | ED90 MS ([3]; 1440 min): 7.9939 µg per ml | HSV-2 yields reduced by ([3]; Vero cells, 5 µg per ml): greater than 1 log | HSV-2 virus yield ([3]; Vero cells, 5 µg/ml): reductions in yields; also recorded: inhibitory | HSV-2 virus yield ([3]; Vero cells, 50 µg/ml): reduced yields of all viruses; also recorded: reduction in titers of all viruses | zone of antiviral activity (viral plaque inhibition) (HSV-2): 2 (2 - 20-30 mm) | zone of cytotoxicity (E.R.): 0/0 | zone of antiviral activity (viral plaque inhibition) (E.R.): 0/0 | times less cytotoxic than phyllanthoside or phyllanthostatin I (Vero cells): 2-5 | ID50 Vero 72 hrs. (Vero cells; vero cells, 72 h): 5.91 mg per ml | ED90 McIntyre [4]: 7.1380 | ED90 McIntyre ([4]; listed as phyllanthocin): 7.14 | HSV-1 virus yield ([4]; 5 µg/ml): only modestly inhibitory; also recorded: reductions in yields | HSV-1 virus yield ([4]; 50 µg/ml): reduced yields of all viruses; also recorded: reduction in titers of all viruses | zone of cytotoxicity (PR-8): 2 (2 - 20-30 mm) | zone of antiviral activity (viral plaque inhibition) (PR-8): 0 | mice survived (of 14) ([5]; 8.0 x 10^3 PFU in 0.1 ml): four | %S (percent survivors) [5, 7]: 29% | MDD (mean day of death) [5, 7]: 8.5 days | mice survived (of 14) ([5]; 8.0 x 10^4 PFU in 0.1 ml): did not protect mice from lethal infection | %S (percent survivors) [5, 8]: 14% | MDD (mean day of death) [5, 8]: 8.0 days | protection of mice from lethal genital HSV-2 infection, summary in words [5]: devoid of antiviral activity | zone of cytotoxicity (Vacc.): 0 | zone of antiviral activity (viral plaque inhibition) (Vacc.): 4

Phyllanthostatin 3
HSV-2 virus yield ([3]; Vero cells, 50 µg/ml): slight reduction in yields | HSV-1 virus yield ([4]; 50 µg/ml): slight reduction in yields

Phyllanthostatin I
coxsackie B3 virus yield ([1]; 5 µg per ml): inhibitory for both viruses | coxsackie B3 virus yield ([1]; below 5 µg per ml (i.e., 0.5 or 1)): unaffected | coxsackie A21 virus yield (coxsackie A21; 5 µg/ml (below 5 µg per ml)): inhibitory for both viruses | coxsackie A21 virus yield (coxsackie A21; below 5 µg per ml (i.e., 0.5 or 1), study of b36): reduced titers of coxsackie A21 | coxsackie A21 virus yield (coxsackie A21; [9]): further reductions in all virus yields | mean titers compared with controls ([6]; 0.5 mg/ml, day 4): nearly the same as that in the controls | mean virus titers less than placebo treated group ([6]; 0.5 mg/ml, days 2 and 3): about 0.7 logs | mean titer less than the placebo ([6]; 1 mg/ml, day 1): greater than 2 logs | mean virus titers lower than placebo treated controls ([6]; 1 mg/ml, days 2 through 4): about 0.5 logs | Mean virus titer in swabs of mice which shed virus [6, 10]: 2.69 log PFU/ml | Nv/Nt, swabs with virus/total swabs [6, 10]: 9/10 | Mean virus titer in swabs of mice which shed virus [6, 11]: 1.67 log PFU/ml | Nv/Nt, swabs with virus/total swabs [6, 11]: 4 | Nv/Nt, swabs with virus/total swabs ([6]; day 1 after HSV-2 inoc., 1 mg/ml, listed as Phyllanostatin I): 6/10 | Mean virus titer in swabs of mice which shed virus [6, 12]: 3.76 log PFU/ml | Nv/Nt, swabs with virus/total swabs [6, 12]: 10/10 | Mean virus titer in swabs of mice which shed virus [6, 13]: 3.83 log PFU/ml | Nv/Nt, swabs with virus/total swabs [6, 13]: 8/10 | Mean virus titer in swabs of mice which shed virus [6, 14]: 3.71 log PFU/ml | Nv/Nt, swabs with virus/total swabs [6, 14]: 10/10 | Mean virus titer in swabs of mice which shed virus [6, 15]: 3.93 log PFU/ml | Nv/Nt, swabs with virus/total swabs [6, 15]: 8/10 | Mean virus titer in swabs of mice which shed virus [6, 16]: 4.13 log PFU/ml | Nv/Nt, swabs with virus/total swabs [6, 16]: 10/10 | Mean virus titer in swabs of mice which shed virus [6, 17]: 3.63 log PFU/ml | Nv/Nt, swabs with virus/total swabs [6, 17]: 8/10 | Mean virus titer in swabs of mice which shed virus [6, 18]: (3.98) log PFU/ml | Nv/Nt, swabs with virus/total swabs [6, 18]: 1/1 | Mean virus titer in swabs of mice which shed virus [6, 19]: 3.47 log PFU/ml | Nv/Nt, swabs with virus/total swabs [6, 19]: 3/5 | VSV virus yield [2, 9]: further reductions in all virus yields | zone of cytotoxicity (HA-1): 4 | zone of antiviral activity (viral plaque inhibition) (HA-1): 0 | zone of antiviral activity (viral plaque inhibition) (Coe): 0 | zone of antiviral activity (viral plaque inhibition) (HSV-1): 4/4 | ED90 MS [3]: 1.64 µg per ml | ED90 MS ([3]; 1440 min): 1.164 µg per ml | HSV-2 virus yield ([3]; Vero cells, 0.5 µg/ml): most susceptible virus to inhibition | HSV-2 virus yield ([3]; Vero cells, higher drug concentrations (5 and 50 µg/ml) compared with 0.5): further reductions in all virus yields | zone of antiviral activity (viral plaque inhibition) (HSV-2): 4/4 | zone of cytotoxicity (E.R.): 2 (2 - 20-30 mm) | zone of antiviral activity (viral plaque inhibition) (E.R.): 4 | ED90 McIntyre ([4]; listed as Phyllanthostatin): 2.3743 | ED90 McIntyre ([4]; listed as phyllanthostatin I): 2.37 | HSV-1 virus yield [4, 9]: further reductions in all virus yields | zone of cytotoxicity (PR-8): 2/2 (2 - 20-30 mm) | zone of antiviral activity (viral plaque inhibition) (PR-8): 2/2 (2 - 20-30 mm) | mice survived (of 14) ([5]; 8.0 x 10^3 PFU in 0.1 ml): 10 | %S (percent survivors) [5, 7]: 71% | MDD (mean day of death) [5, 7]: 11.8 days | mice survived (of 14) ([5]; 8.0 x 10^4 PFU in 0.1 ml): 4 | %S (percent survivors) [5, 8]: 29% | MDD (mean day of death) [5, 8]: 7.4 days | protection of mice from lethal genital HSV-2 infection, summary in words [5]: protected mice from lethal infection when the virus inoculum was reduced | MDD [5, 20]: the same as the saline and DMSO saline treated group | mice survived [5, 20]: all of the animals succumed to infection | death of mice ([5]; second study, 8.0 x 10^4 PFU in 0.1 ml, 1 mg/ml): 80% | zone of cytotoxicity (Vacc.): 4/4 | zone of antiviral activity (viral plaque inhibition) (Vacc.): 4/4
